How the values were obtained:
[1] = target: N-acetylneuraminic acid pyruvate lyase (E.C. 4.1.3.3) (Escherichia coli, UniProt P0A6L4); experiment: reverse reaction (cleavage of Neu5Ac) by the lyase in the presence of pyruvate; assay type: biochemical; details: considerable excess of pyruvate in comparison with the Neu5Ac formed (FIG. 4)
Source text: Because of the large excess of pyruvate, subsequent conversion of the ManNAc to Neu5Ac is promoted.
The Neu5Ac formed is, in accordance with the precision of the equilibrium, subject to more or less strong renewed cleavage by the reverse reaction. Although this reaction is inhibited by an excess of pyruvate (see FIG. 4), it appears advantageous continuously to pass reaction medium from the EMR over an ion exchange column and recycle the rest into the reactor. Alternate use of two columns is advantageous.

[2] = target: T1, N-acylglucosamine-2-epimerase (E.C. 5.1.3.8) (Sus scrofa, UniProt P17560); experiment: relative activity of the epimerase (isomerization of GlcNAc to ManNAc) in the presence of pyruvate or Neu5Ac; assay type: biochemical; details: as a function of the concentration of the inhibiting substance (FIG. 2A)
T1 sequence (P17560 1-402): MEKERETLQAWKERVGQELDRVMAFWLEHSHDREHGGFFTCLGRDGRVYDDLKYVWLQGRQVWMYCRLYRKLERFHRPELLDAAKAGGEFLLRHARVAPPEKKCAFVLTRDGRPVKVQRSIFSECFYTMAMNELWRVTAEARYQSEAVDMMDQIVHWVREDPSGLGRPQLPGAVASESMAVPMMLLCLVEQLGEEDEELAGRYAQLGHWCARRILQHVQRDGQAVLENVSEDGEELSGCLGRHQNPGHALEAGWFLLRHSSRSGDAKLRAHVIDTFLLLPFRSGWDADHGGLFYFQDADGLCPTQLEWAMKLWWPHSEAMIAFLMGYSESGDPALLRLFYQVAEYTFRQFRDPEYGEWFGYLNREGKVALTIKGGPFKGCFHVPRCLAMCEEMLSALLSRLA

N-acetylneuraminic acid pyruvate lyase (E.C. 4.1.3.3), sequence (P0A6L4 whole entry): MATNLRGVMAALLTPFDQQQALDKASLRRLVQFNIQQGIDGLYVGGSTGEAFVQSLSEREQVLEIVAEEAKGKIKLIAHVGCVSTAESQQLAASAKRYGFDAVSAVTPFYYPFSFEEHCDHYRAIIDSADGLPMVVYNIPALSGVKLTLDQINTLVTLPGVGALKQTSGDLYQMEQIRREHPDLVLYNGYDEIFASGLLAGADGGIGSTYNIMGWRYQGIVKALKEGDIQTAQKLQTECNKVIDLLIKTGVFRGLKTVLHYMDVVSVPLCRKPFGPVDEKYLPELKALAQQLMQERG

| Structure (SMILES) | inhibition of the reverse reaction of Neu5Ac formation [1] | inhibition of the epimerase-catalysed isomerization of GlcNAc to ManNAc [2] |
| --- | --- | --- |
| CC(=O)C(=O)O [pyruvic acid] | strongly inhibited | increasingly inhibited |
| CC(=O)N[C@H]1[C@H]([C@H](O)[C@H](O)CO)OC(O)(C(=O)O)C[C@@H]1O (stereo partly drawn) [N-acetylneuraminic acid] |  | inhibiting effect |

Source: US5071750A, “Enzymatic process for preparing N-acetylneuraminic acid” (Forschungszentrum Juelich GmbH, priority 1989, dated 1991)
